Target: T1, Human KLK1 (Homo sapiens, UniProt P06870)
T1 construct: purchased Callbiochem (Calbiochem)
Test: Determination of the IC50 for KLK1 (fluorogenic substrate H-DVal-Leu-Arg-AFC)
Assay type: biochemical
Conditions: 37° C.
Procedure, shortened: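 Human KLK1 incubated at 37° C with fluorogenic substrate H-DVal-Leu-Arg-AFC and a range of test compound concentrations. Residual activity taken as initial reaction rate from absorbance change at 410 nm; IC50 derived from these rates.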

T1 sequence (P06870 25-262): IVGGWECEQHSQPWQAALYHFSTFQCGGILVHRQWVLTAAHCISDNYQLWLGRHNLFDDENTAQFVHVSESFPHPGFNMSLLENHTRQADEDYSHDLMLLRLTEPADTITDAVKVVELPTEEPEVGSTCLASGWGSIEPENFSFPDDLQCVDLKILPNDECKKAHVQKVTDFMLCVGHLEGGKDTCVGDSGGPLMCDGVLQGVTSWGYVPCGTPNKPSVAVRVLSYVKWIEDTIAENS

Nc1ccc(CNC(=O)[C@H](Cc2cccc3ccccc23)NC(=O)c2cc3ccccc3[nH]2)cn1 [Example 298, 1H-Indole-2-carboxylic acid {(S)-1-[(6-amino-pyridin-3-ylmethyl)-carbamoyl]-2-naphthalen-1-yl-ethyl}-amide] gave an IC50 of 9.4 nM.

Nc1ccc(CNC(=O)[C@H](Cc2cccc3ccccc23)NC(=O)c2nc3ccccc3[nH]2)cn1 [Example 299, 1H-Benzoimidazole-2-carboxylic acid {(S)-1-[(6-amino-pyridin-3-ylmethyl)-carbamoyl]-2-naphthalen-1-yl-ethyl}-amide] gave an IC50 of 8.1 nM.

Compound COc1ccc2[nH]c(C(=O)N[C@@H](Cc3cccc4ccccc34)C(=O)NCc3ccc(N)nc3)cc2c1 [Example 300, 5-Methoxy-1H-indole-2-carboxylic acid {(S)-1-[(6-amino-pyridin-3-ylmethyl)-carbamoyl]-2-naphthalen-1-yl-ethyl}-amide] has an IC50 of 7.4 nM.

Nc1ccc(CNC(=O)[C@H](Cc2cccc3ccccc23)NC(=O)c2cc3cc(F)ccc3[nH]2)cn1 [Example 301, 5-Fluoro-1H-indole-2-carboxylic acid {(S)-1-[(6-amino-pyridin-3-ylmethyl)-carbamoyl]-2-naphthalen-1-yl-ethyl}-amide] gave an IC50 of 11 nM.

Nc1ccc(CNC(=O)[C@H](Cc2cccc3ccccc23)NC(=O)c2cc3cc(O)ccc3[nH]2)cn1 [Example 302, 5-Hydroxy-1H-indole-2-carboxylic acid {(S)-1-[(6-amino-pyridin-3-ylmethyl)-carbamoyl]-2-naphthalen-1-yl-ethyl}-amide] gave an IC50 of 7.2 nM.

Cc1nc(N)ccc1CNC(=O)[C@H](Cc1cccc2ccccc12)NC(=O)c1cc2ccccc2[nH]1 [Example 303, 1H-Indole-2-carboxylic acid {(S)-1-[(6-amino-2-methyl-pyridin-3-ylmethyl)-carbamoyl]-2-naphthalen-1-yl-ethyl}-amide] was tested, and the IC50 was 240 nM.

COc1ccc2[nH]c(C(=O)N[C@@H](Cc3cccc4ccccc34)C(=O)NCc3ccc(N)nc3C)cc2c1 [Example 304, 5-Methoxy-1H-indole-2-carboxylic acid {(S)-1-[(6-amino-2-methyl-pyridin-3-ylmethyl)-carbamoyl]-2-naphthalen-1-yl-ethyl}-amide] was tested, and the IC50 was 148 nM.

Cc1nc(N)ccc1CNC(=O)[C@H](Cc1cccc2ccccc12)NC(=O)c1cc2cc(F)ccc2[nH]1 [Example 305, 5-Fluoro-1H-indole-2-carboxylic acid {(S)-1-[(6-amino-2-methyl-pyridin-3-ylmethyl)-carbamoyl]-2-naphthalen-1-yl-ethyl}-amide] was tested, and the IC50 was 119 nM.

Cn1c(C(=O)N[C@@H](Cc2cccc3ccccc23)C(=O)NCc2ccc(N)nc2)cc2ccccc21 [Example 306, 1-Methyl-1H-indole-2-carboxylic acid {(S)-1-[(6-amino-pyridin-3-ylmethyl)-carbamoyl]-2-naphthalen-1-yl-ethyl}-amide] was tested, and the IC50 was 163 nM.

In the case of Nc1ccc(CNC(=O)[C@H](Cc2cccc(C(F)(F)F)c2)NC(=O)c2cc3ccccc3[nH]2)cn1 [Example 307, 1H-Indole-2-carboxylic acid [(S)-1-[(6-amino-pyridin-3-ylmethyl)-carbamoyl]-2-(3-trifluoromethyl-phenyl)-ethyl]-amide], the IC50 is reported as 22 nM.

COc1ccc2[nH]c(C(=O)N[C@@H](Cc3cccc(C(F)(F)F)c3)C(=O)NCc3ccc(N)nc3)cc2c1 [Example 308, 5-Methoxy-1H-indole-2-carboxylic acid [(S)-1-[(6-amino-pyridin-3-ylmethyl)-carbamoyl]-2-(3-trifluoromethyl-phenyl)-ethyl]-amide] gave an IC50 of 15.6 nM.

In the case of Cc1nc(N)ccc1CNC(=O)[C@H](Cc1cccc(C(F)(F)F)c1)NC(=O)c1cc2ccccc2[nH]1 [Example 309, 1H-Indole-2-carboxylic acid [(S)-1-[(6-amino-2-methyl-pyridin-3-ylmethyl)-carbamoyl]-2-(3-trifluoromethyl-phenyl)-ethyl]-amide], the IC50 is reported as 42.3 nM.

COc1ccc2[nH]c(C(=O)N[C@@H](Cc3cccc(C(F)(F)F)c3)C(=O)NCc3ccc(N)nc3C)cc2c1 [Example 310, 5-Methoxy-1H-indole-2-carboxylic acid [(S)-1-[(6-amino-2-methyl-pyridin-3-ylmethyl)-carbamoyl]-2-(3-trifluoromethyl-phenyl)-ethyl]-amide] showed an IC50 of 48.9 nM.

Compound Nc1ccc(CNC(=O)[C@H](Cc2cccc(F)c2)NC(=O)c2cc3ccccc3[nH]2)cn1 [Example 311, 1H-Indole-2-carboxylic acid [(S)-1-[(6-amino-pyridin-3-ylmethyl)-carbamoyl]-2-(3-fluoro-phenyl)-ethyl]-amide] has an IC50 of 46.5 nM.

With COc1ccc2[nH]c(C(=O)N[C@@H](Cc3cccc(F)c3)C(=O)NCc3ccc(N)nc3)cc2c1 [Example 312, 5-Methoxy-1H-indole-2-carboxylic acid [(S)-1-[(6-amino-pyridin-3-ylmethyl)-carbamoyl]-2-(3-fluoro-phenyl)-ethyl]-amide] the IC50 was 38.4 nM.

Work on Nc1ccc(CNC(=O)[C@H](Cc2cccc(Cl)c2)NC(=O)c2cc3ccccc3[nH]2)cn1 [Example 313, 1H-Indole-2-carboxylic acid [(S)-1-[(6-amino-pyridin-3-ylmethyl)-carbamoyl]-2-(3-chloro-phenyl)-ethyl]-amide] yielded an IC50 of 8.7 nM.

With COc1ccc2[nH]c(C(=O)N[C@@H](Cc3cccc(Cl)c3)C(=O)NCc3ccc(N)nc3)cc2c1 [Example 314, 5-Methoxy-1H-indole-2-carboxylic acid [(S)-1-[(6-amino-pyridin-3-ylmethyl)-carbamoyl]-2-(3-chloro-phenyl)-ethyl]-amide] the IC50 was 15.6 nM.

Cc1nc(N)ccc1CNC(=O)[C@@H](Cc1cccc(Cl)c1)NC(=O)c1cc2ccccc2[nH]1 [Example 315, 1H-Indole-2-carboxylic acid [(R)-1-[(6-amino-2-methyl-pyridin-3-ylmethyl)-carbamoyl]-2-(3-chloro-phenyl)-ethyl]-amide] showed an IC50 of 68.6 nM.

COc1ccc2[nH]c(C(=O)N[C@@H](Cc3cccc(Cl)c3)C(=O)NCc3ccc(N)nc3C)cc2c1 [Example 316, 5-Methoxy-1H-indole-2-carboxylic acid [(S)-1-[(6-amino-2-methyl-pyridin-3-ylmethyl)-carbamoyl]-2-(3-chloro-phenyl)-ethyl]-amide] was tested, and the IC50 was 76.7 nM.

Cc1cccc(C[C@H](NC(=O)c2cc3ccccc3[nH]2)C(=O)NCc2ccc(N)nc2)c1 [Example 317, 1H-Indole-2-carboxylic acid {(S)-1-[(6-amino-pyridin-3-ylmethyl)-carbamoyl]-2-m-tolyl-ethyl}-amide] gave an IC50 of 14.7 nM.

With COc1ccc2[nH]c(C(=O)N[C@@H](Cc3cccc(C)c3)C(=O)NCc3ccc(N)nc3)cc2c1 [Example 318, 5-Methoxy-1H-indole-2-carboxylic acid {(S)-1-[(6-amino-pyridin-3-ylmethyl)-carbamoyl]-2-m-tolyl-ethyl}-amide] the IC50 was 12.1 nM.

For Cc1cccc(C[C@H](NC(=O)c2cc3ccccc3[nH]2)C(=O)NCc2ccc(N)nc2C)c1 [Example 319, 1H-Indole-2-carboxylic acid {(S)-1-[(6-amino-2-methyl-pyridin-3-ylmethyl)-carbamoyl]-2-m-tolyl-ethyl}-amide], the IC50 was 110 nM.

In the case of Cc1nc(N)ccc1CNC(=O)[C@H](Cc1ccc(Cl)c(Cl)c1)NC(=O)c1cc2ccccc2[nH]1 [Example 320, 1H-Indole-2-carboxylic acid [(S)-1-[(6-amino-2-methyl-pyridin-3-ylmethyl)-carbamoyl]-2-(3,4-dichloro-phenyl)-ethyl]-amide], the IC50 is reported as 98.5 nM.

In the case of COc1ccc2[nH]c(C(=O)N[C@@H](Cc3ccc(Cl)c(Cl)c3)C(=O)NCc3ccc(N)nc3C)cc2c1 [Example 321, 5-Methoxy-1H-indole-2-carboxylic acid [(S)-1-[(6-amino-2-methyl-pyridin-3-ylmethyl)-carbamoyl]-2-(3,4-dichloro-phenyl)-ethyl]-amide], the IC50 is reported as 85.4 nM.

For Cc1nc(N)ccc1CNC(=O)[C@H](Cc1ccccc1C(F)(F)F)NC(=O)c1cc2ccccc2[nH]1 [Example 322, 1H-Indole-2-carboxylic acid [(S)-1-[(6-amino-2-methyl-pyridin-3-ylmethyl)-carbamoyl]-2-(2-trifluoromethyl-phenyl)-ethyl]-amide], the IC50 was 12.4 nM.

Nc1ccc(CNC(=O)[C@H](Cc2cc(F)cc(F)c2)NC(=O)c2cc3ccccc3[nH]2)cn1 [Example 323, 1H-Indole-2-carboxylic acid [(S)-1-[(6-amino-pyridin-3-ylmethyl)-carbamoyl]-2-(3,5-difluoro-phenyl)-ethyl]-amide] gave an IC50 of 48.1 nM.

Work on Nc1ccc(CNC(=O)[C@H](Cc2cc(F)c(F)cc2F)NC(=O)c2cc3ccccc3[nH]2)cn1 [Example 324, 1H-Indole-2-carboxylic acid [(S)-1-[(6-amino-pyridin-3-ylmethyl)-carbamoyl]-2-(2,4,5-trifluoro-phenyl)-ethyl]-amide] yielded an IC50 of 68.4 nM.

For Nc1ccc(CNC(=O)[C@H](Cc2ccc(F)c(F)c2)NC(=O)c2cc3ccccc3[nH]2)cn1 [Example 325, 1H-Indole-2-carboxylic acid [(S)-1-[(6-amino-pyridin-3-ylmethyl)-carbamoyl]-2-(3,4-difluoro-phenyl)-ethyl]-amide], the IC50 was 21.3 nM.

For Nc1ccc(CNC(=O)[C@H](Cc2ccc(F)c(F)c2)NC(=O)c2cc3cc(F)ccc3[nH]2)cn1 [Example 326, 5-Fluoro-1H-indole-2-carboxylic acid [(S)-1-[(6-amino-pyridin-3-ylmethyl)-carbamoyl]-2-(3,4-difluoro-phenyl)-ethyl]-amide], the IC50 was 25.4 nM.

Compound COc1ccc2[nH]c(C(=O)N[C@@H](Cc3ccc(F)c(F)c3)C(=O)NCc3ccc(N)nc3)cc2c1 [Example 327, 5-Methoxy-1H-indole-2-carboxylic acid [(S)-1-[(6-amino-pyridin-3-ylmethyl)-carbamoyl]-2-(3,4-difluoro-phenyl)-ethyl]-amide] has an IC50 of 17.8 nM.

For Nc1ccc(CNC(=O)[C@H](Cc2ccc(F)c(F)c2)NC(=O)c2nc3ccccc3[nH]2)cn1 [Example 328, 1H-Benzoimidazole-2-carboxylic acid [(S)-1-[(6-amino-pyridin-3-ylmethyl)-carbamoyl]-2-(3,4-difluoro-phenyl)-ethyl]-amide], the IC50 was 179 nM.

— patent US20100076015A1, “Aminopyridine Derivatives” (VANTIA LIMITED, priority 2008, published 2010)
